In PubChem BioAssay AID328 (DTP/NCI, 2004):
Where “and” joins values, the source holds several entries; their conditions need not be identical. Equal entries are not always repeated. Inconclusive results and toxic doses are left out. The calls were made as follows: active = survival T/C of 150% or more; inactive = T/C below 125% in these data.

Tested on: BDF1 mice, P388 leukemia ip, median survival T/C
Assay: NCI In Vivo Anticancer Drug Screen. Data for tumor model P388 Leukemia (intraperitoneal) in B6D2F1 (BDF1) mice
Conditions: endpoint: median survival time, higher = longer survival
Outline: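 Reported as T/C, where T is the survival measurement in dosed animals and C the same measurement in vehicle controls.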

[1] = dose: 100.0 mg/kg/injection, schedule: Q04DX003 (ip), vehicle: saline with Tween-80
[2] = dose: 200.0 mg/kg/injection, schedule: Q04DX003 (ip), vehicle: saline with Tween-80
[3] = dose: 400.0 mg/kg/injection, schedule: Q04DX003 (ip), vehicle: saline with Tween-80
[4] = dose: 50.0 mg/kg/injection, schedule: Q04DX003 (ip), vehicle: saline
[5] = dose: 25.0 mg/kg/injection, schedule: Q01DX009 (ip), vehicle: saline
[6] = dose: 50.0 mg/kg/injection, schedule: Q01DX009 (ip), vehicle: saline

Measured: T/C

O=C(c1ccccc1)C(c1ccccc1)C(O)(C(F)(F)F)C(F)(F)F (stereo unspecified)
inactive: dose: 100.0 mg/kg/injection, schedule: Q01DX001 (ip), vehicle: saline with Tween-80 100 % of control | dose: 200.0 mg/kg/injection, schedule: Q01DX001 (ip), vehicle: saline with Tween-80 95 % of control

CCCCCCCCCCCCCCCCOc1ccc(Cl)cc1
inactive: dose: 25.0 mg/kg/injection, schedule: Q01DX001 (ip), vehicle: saline sonified 109 % of control | dose: 50.0 mg/kg/injection, schedule: Q01DX001 (ip), vehicle: saline sonified 100 % of control

Cc1cc(=O)[nH]c(N/N=C/c2ccc(N(CCCl)CCCl)cc2)n1
inactive: [1] 95 % of control | [2] 86 % of control | [3] 95 % of control

CC1(C)N=C(N)N=C(N)N1c1cccc(Br)c1
inactive: dose: 2.7 mg/kg/injection, schedule: Q04DX003 (ip), vehicle: saline 100 % of control | dose: 4.0 mg/kg/injection, schedule: Q04DX003 (ip), vehicle: saline 90 % of control | dose: 75.0 mg/kg/injection, schedule: Q04DX003 (ip), vehicle: saline 90 % of control
active: dose: 33.0 mg/kg/injection, schedule: Q04DX003 (ip), vehicle: saline 168 % of control | [4] 177 % of control and 179 % of control

CCCCNC(C)(C)C(SS)c1cccs1 (stereo unspecified)
inactive: dose: 100.0 mg/kg/injection, schedule: Q04DX003 (ip), vehicle: other 100 % of control | dose: 200.0 mg/kg/injection, schedule: Q04DX003 (ip), vehicle: other 100 % of control

C/C(=N/N(C)C)c1ccc(Br)cc1
inactive: dose: 12.5 mg/kg/injection, schedule: Q01DX009 (ip), vehicle: saline 100 % of control | [5] 100 % of control | [6] 112 % of control | dose: 110.0 mg/kg/injection, schedule: Q04DX003 (ip), vehicle: saline 109 % of control | dose: 170.0 mg/kg/injection, schedule: Q04DX003 (ip), vehicle: saline 95 % of control | dose: 255.0 mg/kg/injection, schedule: Q04DX003 (ip), vehicle: saline 95 % of control

NC(CSC(c1ccccc1)(c1ccccc1)c1ccc(CO)cc1)C(=O)O (stereo unspecified)
active: dose: 25.0 mg/kg/injection, schedule: Q01DX009 (ip), vehicle: Klucel (hydroxypropylcellulose) (HPC) 150 % of control | [5] 159 % of control | dose: 50.0 mg/kg/injection, schedule: Q01DX009 (ip), vehicle: Klucel (hydroxypropylcellulose) (HPC) 168 % of control | [6] 163 % of control | dose: 75.0 mg/kg/injection, schedule: Q01DX009 (ip), vehicle: Klucel (hydroxypropylcellulose) (HPC) 159 % of control | dose: 150.0 mg/kg/injection, schedule: Q01DX009 (ip), vehicle: Klucel (hydroxypropylcellulose) (HPC) 154 % of control | dose: 300.0 mg/kg/injection, schedule: Q01DX009 (ip), vehicle: Klucel (hydroxypropylcellulose) (HPC) 259 % of control | dose: 400.0 mg/kg/injection, schedule: Q01DX009 (ip), vehicle: Klucel (hydroxypropylcellulose) (HPC) 272 % of control | dose: 400.0 mg/kg/injection, schedule: Q04DX003 (ip), vehicle: saline 155 % of control
inactive: dose: 3.0 mg/kg/injection, schedule: Q01DX009 (ip), vehicle: Klucel (hydroxypropylcellulose) (HPC) 100 % of control | dose: 6.0 mg/kg/injection, schedule: Q01DX009 (ip), vehicle: Klucel (hydroxypropylcellulose) (HPC) 113 % of control | dose: 12.0 mg/kg/injection, schedule: Q01DX009 (ip), vehicle: Klucel (hydroxypropylcellulose) (HPC) 122 % of control | dose: 12.0 mg/kg/injection, schedule: Q01DX009 (ip), vehicle: saline 109 % of control | dose: 12.0 mg/kg/injection, schedule: Q04DX003 (ip), vehicle: saline 100 % of control | dose: 25.0 mg/kg/injection, schedule: Q04DX003 (ip), vehicle: saline 103 % of control | [4] 111 % of control

CC(C)CSc1nc(N)nc2nc[nH]c12
inactive: [1] 109 % of control | [2] 109 % of control

CC1(C)CCC2(CC1)CC(=O)OC2=O
inactive: [1] 95 % of control | [2] 87 % of control | [3] 104 % of control
